A short description of one data set: in vitro. The settings on record: human.
Data set [1] concerns Plasmodium falciparum Dd2 asexual blood stage parasites. The data set can be described thus: microbe, parasite or virus in culture. The settings on record: Plasmodium falciparum, DD2, Erythrocyte, 72 h; read-out: AC50. The arrangement: species or system Plasmodium falciparum Dd2 in human erythrocytes; single determination (one 11-point concentration-response curve).
Setting [2] is: HepG2-A16-CD81EGFP cells, uninfected.

Molecules are shown by their SMILES.

On to `OC(CNCc1cccc(Cl)c1)c1ccccc1` (centres unmarked) [MLS000674343-01], for which the viability at 66 h in “in vitro” (setting [2]) came to 106%. In addition, the AC50 in data set [1] worked out at 4.73 µM.

For the compound `CCOC(=O)c1cnc2cc(OCC(C)C)c(OCC(C)C)cc2c1O` [NCGC00167562-01], in “in vitro” (setting [2]), the viability at 48 h, 1 µM was 83% and the viability at 48 h, 3 µM was determined as 82%. For the same compound, the AC50 in data set [1] stood at 0.944 µM.

For the compound `Cc1onc(-c2ccc(Cl)cc2)c1-c1ccnn1S(=O)(=O)c1ccc(Cl)cc1` [MLS001111121-01], the viability at 66 h in “in vitro” (setting [2]) was 100%. Also, the AC50 in data set [1] is 1.88 µM.

Take `CCN(CC)CCC(c1ccc(OC)cc1)c1c(O)cc(OC)cc1OC` (centres unmarked) [MLS000879488-01]: the viability at 66 h in “in vitro” (setting [2]) is 99.6%. In data set [1], the AC50 is 6.68 µM.

Turning to `CCc1cc2c(=O)c(-c3cnn(-c4ccccc4)c3)c(C)oc2c(CN2CCCCC2)c1O` [MLS000530719-01], in the data set “in vitro” (setting [2]), the viability at 48 h, 1 µM turned out to be 105% and the viability at 48 h, 3 µM turned out to be 105%. Moreover, the AC50 in data set [1] stood at 1.33 µM.

Regarding `COc1ccc(NC2=C(c3ccc(OC)cc3)C(=O)c3ccccc32)cc1` [MLS000562793-01], in “in vitro” (setting [2]), the viability at 48 h, 1 µM came out at 91% and the viability at 48 h, 3 µM is 90%. For the same compound, the AC50 in data set [1] is 5.96 µM.

Consider `COc1cc(C(=O)Nc2ccc3nc(N4CCN(C)CC4)cc(C)c3c2)cc(OC)c1OC` [MLS001197839-01], for which, in “in vitro” (setting [2]), the viability at 48 h, 1 µM is 101% and the viability at 48 h, 3 µM came out at 103%. Moreover, in data set [1], the concentration at half-maximal activity (AC50) came to 3.35 µM.

Consider `Cn1nc(C(F)(F)F)c(-c2cccc(C(F)(F)F)c2)c1NC(=O)Nc1ccc(F)cc1` [MLS000830770-01], for which, in the data set “in vitro” (setting [2]), the viability at 48 h, 1 µM was 98% and the viability at 48 h, 3 µM was 103%. Further, in data set [1], the AC50 came to 2.37 µM.

As to `O=C1C2=C(Nc3ccccc3SC2c2ccco2)c2ccccc21` (centres unmarked) [MLS000108310-01], in “in vitro” (setting [2]), the viability at 48 h, 1 µM stood at 110% and the viability at 48 h, 3 µM is 99%. Moreover, the AC50 in data set [1] was found to be 4.73 µM.

Consider `COc1ccc(-c2csc3ncnc(Cl)c23)cc1` [MLS000765103-01], for which, in the data set “in vitro” (setting [2]), the viability at 48 h, 1 µM was found to be 86% and the viability at 48 h, 3 µM worked out at 86%. The AC50 in data set [1] came out at 4.22 µM.

As to `CC(C)Oc1ccc(CCc2nnc(S)n2Cc2ccccc2)cc1` [MLS000582839-01], in “in vitro” (setting [2]), the viability at 48 h, 1 µM was determined as 101% and the viability at 48 h, 3 µM came to 103%. For the same compound, in data set [1], the AC50 was determined as 5.31 µM.

As for `CCOc1cc(C(=O)N2CCC(CC3CC(c4cccc(Br)c4)=NO3)(C(=O)NCC3CCCCC3)CC2)cc(OCC)c1OCC` (centres unmarked) [MLS001074456-01], in the data set “in vitro” (setting [2]), the viability at 48 h, 1 µM came out at 106% and the viability at 48 h, 3 µM turned out to be 103%. Further, the AC50 in data set [1] amounted to 1.68 µM.

`C=CC1CN2CCC1CC2C(OC(C)=O)c1ccnc2ccc(OC)cc12` (centres unmarked) [MLS000851200-01]: in the data set “in vitro”, the viability at 66 h is 99.9%. For the same compound, the AC50 in data set [1] turned out to be 1.68 µM.

`CCCc1cc(=O)oc2cc(C)cc(OC(C)C(=O)NCC(O)c3ccccc3)c12` (centres unmarked) [MLS001158075-01]: in “in vitro” (setting [2]), the viability at 48 h, 1 µM came to 84% and the viability at 48 h, 3 µM was 88%. The AC50 in data set [1] was determined as 0.841 µM.

For `O=S(=O)(c1ccc2ccccc2c1)N1CCN(/C(S)=N/c2ccccc2F)CC1` [MLS000760214-01], in “in vitro” (setting [2]), the viability at 48 h, 1 µM was 103% and the viability at 48 h, 3 µM stood at 102%. The AC50 in data set [1] was 4.22 µM.

For the compound `COc1ccccc1N1CCN(C(=O)c2ccc3c(=O)n(Cc4ccc5c(c4)OCO5)c(=O)[nH]c3c2)CC1` [MLS001028591-01], the viability at 66 h in “in vitro” (setting [2]) was found to be 94%. In addition, in data set [1], the AC50 stood at 2.99 µM.

`Cc1cc(O)c(CN2CC=C(c3ccccc3)CC2)cc1C(C)C` [MLS001176749-01]: in “in vitro”, the viability at 48 h, 1 µM worked out at 106% and the viability at 48 h, 3 µM was determined as 105%. Also, the half-maximal activity concentration (AC50) in data set [1] turned out to be 0.335 µM.

As to `CC(C)Oc1ccc2c(c1)OC(c1ccccc1)(C(F)(F)F)NC2=O` (centres unmarked) [MLS000392812-01], in “in vitro” (setting [2]), the viability at 48 h, 1 µM came out at 105% and the viability at 48 h, 3 µM came out at 98%. Besides, the AC50 in data set [1] worked out at 2.66 µM.

`CC(CCc1ccccc1)NCC(O)c1cccc([N+](=O)[O-])c1` (centres unmarked) [MLS000712395-01]: in the data set “in vitro” (setting [2]), the viability at 48 h, 1 µM came to 104% and the viability at 48 h, 3 µM came out at 106%. The AC50 in data set [1] is 0.473 µM.

As to `CCOC(=O)C1=C(C)N=c2sc(=Cc3ccc(OCC(=O)O)cc3)c(=O)n2C1c1cc(OC)c(OC)c(OC)c1` (centres unmarked) [MLS001178475-01], in the data set “in vitro” (setting [2]), the viability at 48 h worked out at 98% and the viability at 48 h, 1 µM was found to be 98%. The AC50 in data set [1] amounted to 1.88 µM.

For the compound `NNC(=O)CN1C(c2cccc(Cl)c2)=Nc2ccc(Br)cc2C1c1ccccc1` (centres unmarked) [MLS000558682-01], in “in vitro” (setting [2]), the viability at 48 h, 1 µM was found to be 90% and the viability at 48 h, 3 µM came out at 89%. Further, in data set [1], the AC50 turned out to be 2.66 µM.

Turning to `COc1ccc(C(CCN2CCCCC2)c2c(O)cc(OC)cc2OC)cc1` (centres unmarked) [MLS000879486-01], in “in vitro” (setting [2]), the viability at 48 h, 1 µM was found to be 90% and the viability at 48 h, 3 µM turned out to be 85%. The AC50 in data set [1] is 1.33 µM.

With `O=C(NCCCNc1ccnc2cc(Cl)ccc12)c1ccccc1F` [MLS001215856-01], in “in vitro” (setting [2]), the viability at 48 h, 1 µM amounted to 85% and the viability at 48 h, 3 µM is 88%. The AC50 in data set [1] is 0.841 µM.

As to `CCn1c2c(c(=N)c3c1CCC3)CCCC2` [MLS001047512-01], the viability at 66 h in the data set “in vitro” (setting [2]) came to 100%. In data set [1], the AC50 was 13.3 µM.

`COc1ccc2c(c1)C1(Nc3ccccc3-c3nc4ccccc4n31)C(=O)N2` (centres unmarked) [MLS000080605-01]: in “in vitro” (setting [2]), the viability at 48 h, 1 µM is 99% and the viability at 48 h, 3 µM is 104%. Moreover, in data set [1], the AC50 was found to be 0.596 µM.

For the compound `Cc1cc(Nc2ccccc2)nc2cc(O)ccc12` [MLS000586979-01], in “in vitro” (setting [2]), the viability at 48 h, 1 µM is 100% and the viability at 48 h, 3 µM is 100%. For the same compound, in data set [1], the AC50 is 0.422 µM.

In the case of `CCCCN(CC)CCNC(=O)c1cc2c(-c3ccc(Cl)cc3)nn(C)c2s1` [NCGC00108995-01], in “in vitro” (setting [2]), the viability at 48 h, 1 µM is 102% and the viability at 48 h, 3 µM is 97%. In addition, in data set [1], the half-maximal activity concentration (AC50) was found to be 0.668 µM.

For the compound `Oc1c2c(nc3ccc(Br)cc13)CCCC2` [MLS000074180-01], in “in vitro” (setting [2]), the viability at 48 h, 1 µM turned out to be 100% and the viability at 48 h, 3 µM was determined as 98%. Moreover, in data set [1], the AC50 worked out at 6.68 µM.

Take `COc1ccc(C(CCN2CCN(c3ccccc3)CC2)c2c(O)cc(OC)cc2OC)cc1` (centres unmarked) [MLS000879538-01]: in the data set “in vitro” (setting [2]), the viability at 48 h, 1 µM is 95% and the viability at 48 h, 3 µM was found to be 95%. Besides, the concentration at half-maximal activity (AC50) in data set [1] was found to be 0.944 µM.

In the case of `O=C1/C(=C/Nc2cccc(S(=O)(=O)NC3=NCCCCC3)c2)c2ccccc2C(=O)N1Cc1ccccc1` [MLS000775273-01], the viability at 66 h in “in vitro” (setting [2]) amounted to 93.2%. Moreover, the AC50 in data set [1] is 13.3 µM.

Turning to `CCOC(=O)c1c(C)[nH]c(C(=O)CSc2nnc(C3CC3)n2N)c1C` [MLS000536141-01], in the data set “in vitro” (setting [2]), the viability at 48 h, 1 µM is 92% and the viability at 48 h, 3 µM was 89%. Besides, the AC50 in data set [1] is 1.5 µM.

Turning to `O=C(Nc1ccc(C2=NCCN2)cc1)c1ccc(C(=O)Nc2ccc(C3=NCCN3)cc2)c([N+](=O)[O-])c1` [MLS000737369-01], in the data set “in vitro” (setting [2]), the viability at 48 h, 1 µM stood at 94% and the viability at 48 h, 3 µM turned out to be 85%. Moreover, in data set [1], the AC50 worked out at 0.237 µM.

On to `CC1CCCCN1Cc1c(O)ccc2c(=O)c(-c3nc4ccccc4s3)c(N)oc12` (centres unmarked) [MLS000591245-01], for which, in the data set “in vitro” (setting [2]), the viability at 48 h, 1 µM came out at 98% and the viability at 48 h, 3 µM was found to be 95%. Further, in data set [1], the AC50 was 1.06 µM.

As to `Cc1ccccc1OCC(O)CN(Cc1ccccc1O)C1CCCCC1` (centres unmarked) [MLS001002964-01], in “in vitro” (setting [2]), the viability at 48 h, 1 µM came to 85% and the viability at 48 h, 3 µM is 90%. The AC50 in data set [1] worked out at 0.119 µM.

By viability is commonly meant a read-out of living cells in per cent, often relative to untreated cells. One may read the AC50 as the concentration at which the activity in the assay is half-maximal.

For the origin of these results see publication PMC7822874, “Chemoprotective antimalarials identified through quantitative high-throughput screening of Plasmodium blood and liver stage parasites” (Scientific Reports, 2021).
